Legend:
leukemia cell lines = assay: NCI human tumor cell lines, leukemia; format: cell-based; details: average over all cell lines of the tumor type; data provided by the NCI
[1] = tested on: ileocecal carcinoma (HCT-8); assay: in vitro cytotoxicity assay, HCT-8; details: read-out: Cytotoxicity (ED50) HCT-8; HCT-8; drug exposure 3 days; NA = not active
Description: (§1) Biological Assay. The in vitro cytotoxicity assay was carried out according to procedures described in Rubinstein et al. (P. Ferguson et al., Cancer Res. 1988, 48, 5956-5964). […] The human tumor cell line panel consisted of epiderimoid carcinoma of the nasopharynx (KB), lung carcinoma (A-549), ileocecal carcinoma (HCT-8), renal cancer (CAKI-1), breast cancer (MCF-7), melanoma cancer (SKMEL-2), and ovarian cancer (1A9). The drug resistant cell line panel consisted of three KB-derivatives, -7d, -CPT, and -VCR. The properties of these cells are described elsewhere (P. Ferguson et al., Cancer Res. 1988, 48, 5956-5964; D. Beidler et al., Cancer Res. 1996, 56, 345-353). […] They were a generous gift of Dr. P. Giannakakou (P. Giannakakou et al., J. Biol. Chem. 1997, 27, 17118-17125). Cells were cultured at 37° C. in RPMI-1640 with 100 ug/mL kanamycin and 10% (v/v) fetal bovine serum in a humidified atmosphere containing 5% CO2. Initial seeding densities varied among the cell lines to ensure a final absorbance of 1-2.5 A562 units. Drug exposure was for 3 days, and the ED50 value, the drug concentration that reduced the absorbance by 50%, was interpolated from dose-response data.

KB-VCR = assay: cytotoxicity in drug resistant cell line KB-VCR; format: cell-based, human; details: KB-VCR drug resistant KB derivative
Description: as §1
(§2) The newly synthesized taxoid-4′-O-demethyl epipodophyllotoxin conjugates were evaluated in house using standard cytotoxicity assays in human tumor (HTCL) and drug-resistant (DRCL) cell lines. Reference compounds were paclitaxel (1), cephalomannine (2), and epipodophyllotoxins [etoposide (5) and GL-331 (7), see FIG. 1]. The HTCL panel was comprised of KB, A549, HCT-8, CAKI-1, MCF-7, SK-MEL-2, and 1A9 cell lines. Two paclitaxel-resistant 1A9 sub-lines designated as PAX-10 and PAX-22 were also tested as part of the DRCL panel. Other resistant-cell lines were KB derivatives expressing various mechanisms or multi-drug resistance as described elsewhere (P. Ferguson et al., Cancer Res. 1988, 48, 5956-5964; D. Beidler et al., Cancer Res. 1996, 56, 345-353).

renal cancer (CAKI-1) = assay: in vitro cytotoxicity assay, CAKI-1; details: read-out: Cytotoxicity (ED50) CAKI-1; CAKI-1; drug exposure 3 days
Description: as §1

melanoma cell lines = assay: NCI human tumor cell lines, melanoma; format: cell-based; details: average over all cell lines of the tumor type; data provided by the NCI
[2] = tested on: paclitaxel resistant cells; assay: cytotoxicity against paclitaxel resistant cells (overall); format: cell-based, human; details: compared with the unconjugated components, Table 3
Description: as §1, §2

KB-CPT = assay: cytotoxicity in drug resistant cell line KB-CPT; format: cell-based, human; details: KB-CPT drug resistant KB derivative
Description: as §1, §2

[3] = tested on: approximately 60 human tumor cell lines; assay: NCI cytotoxicity evaluation in approximately 60 human tumor cell lines (overall); format: cell-based; details: especially leukemia, colon, and prostate cell lines
[4] = tested on: Non-small cell lung cancer cell lines; assay: NCI human tumor cell lines, NSCL; format: cell-based; details: average over all cell lines of the tumor type; data provided by the NCI
lung carcinoma (A-549) = assay: in vitro cytotoxicity assay, A549; details: read-out: Cytotoxicity (ED50) A549; A549; drug exposure 3 days; NA = not active
Description: as §1

ovarian cancer (1A9) = assay: in vitro cytotoxicity assay, 1A9; details: read-out: Cytotoxicity (ED50) 1A9 (OVCAR); 1A9 (OVCAR); drug exposure 3 days
Description: as §1

breast cell lines = assay: NCI human tumor cell lines, breast; format: cell-based; details: average over all cell lines of the tumor type; data provided by the NCI
[5] = tested on: Cellular protein-DNA complex formation; assay: Protein-linked DNA break assay (cellular protein-DNA complex formation); format: cell-based
Description: (§3) Protein-Linked DNA Break and Topoisomerase 11 Activity Assays. The procedures were done according to detailed published methods (K. Bastow et al., Bioorg. Med. Chem. 1997, 5, 1481-1488).

PAX-22 = assay: cytotoxicity in paclitaxel-resistant 1A9 sub-line PAX-22; format: cell-based, human; details: PAX-22 paclitaxel-resistant 1A9 sub-line
Description: as §1, §2

renal cell lines = assay: NCI human tumor cell lines, renal; format: cell-based; details: average over all cell lines of the tumor type; data provided by the NCI
PAX-10 = assay: cytotoxicity in paclitaxel-resistant 1A9 sub-line PAX-10; format: cell-based, human; details: PAX-10 paclitaxel-resistant 1A9 sub-line
Description: as §1, §2

Topoisomerase II = Topoisomerase II activity assay (inhibition of topo II in vitro); format: biochemical; details: NA^1 not active at 50 uM, NA^2 not active at 100 uM
Description: as §3

Colon cell lines = assay: NCI human tumor cell lines, colon; format: cell-based; details: average over all cell lines of the tumor type; data provided by the NCI
[6] = tested on: Central nervous system cancer cell lines; assay: NCI human tumor cell lines, CNS; format: cell-based; details: average over all cell lines of the tumor type; data provided by the NCI
ovarian cell lines = assay: NCI human tumor cell lines, ovarian; format: cell-based; details: average over all cell lines of the tumor type; data provided by the NCI
prostate cell lines = assay: NCI human tumor cell lines, prostate; format: cell-based; details: average over all cell lines of the tumor type; data provided by the NCI
[7] = tested on: melanoma cancer (SKMEL-2); assay: in vitro cytotoxicity assay, SK-MEL-2; details: read-out: Cytotoxicity (ED50) SK-MEL-2; SK-MEL-2; drug exposure 3 days; NA = not active
Description: as §1

breast cancer (MCF-7) = assay: in vitro cytotoxicity assay, MCF-7; details: read-out: Cytotoxicity (ED50) MCF-7; MCF-7; drug exposure 3 days
Description: as §1

KB-7d = assay: cytotoxicity in drug resistant cell line KB-7d; format: cell-based, human; details: KB-7d drug resistant KB derivative
Description: as §1, §2

[8] = tested on: epiderimoid carcinoma of the nasopharynx (KB); assay: in vitro cytotoxicity assay, KB; format: cell-based, human; details: drug exposure 3 days
Description: as §1

COc1cc([C@@H]2c3cc4c(cc3[C@@H](N=Cc3ccc(C(=O)O[C@@H](C(=O)O[C@H]5C[C@@]6(O)[C@@H](OC(=O)c7ccccc7)[C@@H]7[C@]8(OC(C)=O)CO[C@@H]8C[C@H](O)[C@@]7(C)C(=O)[C@H](OC(C)=O)C(=C5C)C6(C)C)[C@@H](NC(=O)c5ccccc5)c5ccccc5)cc3)[C@H]3COC(=O)[C@H]23)OCO4)cc(OC)c1O [Compound 12]
log GI50 leukemia (leukemia cell lines): −7.60
EC50 [1]: 0.54 µM
Resistance Fold KB-VCR (KB-VCR): 17
EC50 (renal cancer (CAKI-1)): > 0.25 µM
log GI50 melanoma (melanoma cell lines): −6.29
activity against paclitaxel resistant cells (in words) [2]: enhanced activity against paclitaxel resistant cells
Resistance Fold KB-CPT (KB-CPT): 1
inhibitory effects against NCI tumor cell lines (in words) [3]: strongest inhibitory effects against a variety of tumor cell lines
log GI50 NSCL [4]: −6.58
EC50 (lung carcinoma (A-549)): 0.21 µM
EC50 (ovarian cancer (1A9)): 0.03 µM
log GI50 breast (breast cell lines): −6.56
Cellular protein-DNA complex formation ([5]; Etoposide given as 100, NA^1 not active at 50 uM, NA^2 not active at 100 uM): 8 +/− 2%
intracellular poisoning / stimulation of protein-DNA breaks in cells (in words) ([5]; in cells): intracellular poisons
Resistance Fold PAX-22 (PAX-22): 17
log GI50 renal (renal cell lines): −6.13
Resistance Fold PAX-10 (PAX-10): 7
Inhibition of Topo II IC100 (Topoisomerase II): 100 µM
log GI50 Colon (Colon cell lines): −7.20
log GI50 CNS [6]: −6.93
log GI50 ovarian (ovarian cell lines): −6.55
log GI50 prostate (prostate cell lines): −7.22
EC50 [7]: > 0.4 µM
EC50 (breast cancer (MCF-7)): 0.33 µM
Resistance Fold KB-7d (KB-7d): 1
Cytotoxicity (ED50) KB [8]: 0.003 µM

Reference: patent US6624317B1, “Taxoid conjugates as antimitotic and antitumor agents” (priority 2000, dated 2003)
